Test results from patent publication US20230348422A1, “ALBICIDIN DERIVATIVES, THEIR USE AND SYNTHESIS” (TECHNISCHE UNIVERSITÄT BERLIN, priority 2020, published 2023).
In brackets after ≈: the same amount, converted by molar mass. Like-named read-outs stand apart in the source and are kept apart here.

Tests used:
Experiment in all cases: Microdilution assay, MIC
Assay type in all cases: cell-based
M. phlei DSM 750 = conditions: Mycolicibacterium phlei, read-out: MIC M. phlei DSM 750
E. coli BW25113 = conditions: Escherichia coli, read-out: MIC E. coli BW25113
S. typhimurium TA 100 = conditions: Salmonella enterica, 20 h, read-out: MIC S. typhimurium TA 100
Experimental: (§1) The tests were performed using the micro dilution method.
(§2) The determination of MIC values was performed according to the ninth edition of the Approved Standard M07-A9 (CLSI. Methods for Dilution Antimicrobial Susceptibility Tests for Bacteria That Grow Aerobically; Approved Standard-Ninth Edition. CLSI document M07-A9. Wayne, PA: Clinical and Laboratory Standards Institute; 2012.)
(§3) The test was carried out for four different bacterial strains (E. coli DSM 1116 [gram negative], B. subtilis DSM 10 [gram positive], M. luteus DSM 1790 [gram positive], S. typhimurium TA100 [gram negative]). 20 μL of cryo stock of each strain were inoculated in 20 mL of LB media (Lysogeny broth: 10 g/L peptone, 5 g/L yeast extract, 5 g/L NaCl) followed by incubation over night at 37° C., 200 rpm. The test inoculum was adjusted by the 0.5 McFarland Standard (OD625 from 0.08 to 0.1). Within 15 min of preparation, the adjusted inoculum suspension was diluted in MHBII media (BBL TM Mueller-Hinton Broth II, Becton, Dickinson and Company, New Jersey/USA) so that each well contained approximately 5×10^5 CFU/mL in a final volume of 100 μL. 95 μL of the inoculum were applied per well and 5 μL of the (diluted) antibiotic substance were added.
(§4) Previously the dry antibiotic compounds were dissolved in DMSO (100%) with a concentration of 2560 μg/mL and the resulting stock solutions were further diluted in DMSO (100%). 5 μL of each antibiotic dilution were applied to the microdilution tray to reach final concentrations of 64 μg/mL to 0.008 μg/mL. One row of each well plate was left as a growth control without antibiotic substances and another row of the microdilution tray was used as sterility control (only MHB II-media). The antimicrobial effect of the solvent (DMSO) was tested by adding 5 μL DMSO to several wells without antibiotics. Purity check and cell titer control were performed according to International Standard M07-A9 on Mueller-Hinton II Agar (Mueller Hinton II Broth, 15 g/L agar-agar). Both microdilution trays and agar plates were incubated at 37° C. for 20 h and subsequently analyzed visually.
(§5) The potency of an antibiotic is determined by the minimum inhibitory concentration (MIC). Contrary to intuition, a particularly low value is equated with a high potency.

E. coli DSM 1116 = conditions: Escherichia coli, read-out: MIC E. coli DSM 1116
Experimental: as §1, §2, §3, §4, §5

M. luteus DSM 1790 = conditions: Micrococcus luteus, read-out: MIC M. luteus DSM 1790
Experimental: as §1, §2, §3, §4, §5

B. subtilis DSM 10 = conditions: Bacillus subtilis, read-out: MIC B. subtilis DSM 10
Experimental: as §1, §2, §3, §4, §5

[1] = DSM750, Gram-positive, MHBII media, 37° C., 20 h
[2] = BW25113, Gram-negative, MHBII media, 37° C., 20 h
[3] = Gram-negative, MHBII media, 37° C.
[4] = DSM1116, Gram-negative, MHBII media, 37° C., 20 h
[5] = DSM1790, Gram-positive, MHBII media, 37° C., 20 h
[6] = DSM10, Gram-positive, MHBII media, 37° C., 20 h

Row | SMILES | MIC (M. phlei DSM 750; [1]) | MIC (E. coli BW25113; [2]) | MIC (S. typhimurium TA 100; [3]) | MIC (E. coli DSM 1116; [4]) | MIC (M. luteus DSM 1790; [5]) | MIC (B. subtilis DSM 10; [6]) | MIC (M. phlei DSM 750; DSM750, 20 h) | MIC (E. coli BW25113; BW25113, 20 h) | MIC (S. typhimurium TA 100) | MIC (E. coli DSM 1116; DSM1116, 20 h) | MIC (M. luteus DSM 1790; DSM1790, 20 h) | MIC (B. subtilis DSM 10; DSM10, 20 h)
1 | C#Cc1ccc(C(=O)Nc2ccc(C(=O)N[C@@H](Cc3cnn[nH]3)C(=O)Nc3ccc(C(=O)Nc4ccc(C(=O)Nc5ccc(C(=O)O)c(O)c5OC)c(O)c4OC)cc3)cc2)cc1 [Compound 14] | 1 µg/mL (≈ 1.17 µM) | 0.063 µg/mL (≈ 0.0739 µM) | 0.063 µg/mL (≈ 0.0739 µM) | 0.063 µg/mL (≈ 0.0739 µM) | 0.5 µg/mL (≈ 0.586 µM) | 0.5 µg/mL (≈ 0.586 µM) |  |  |  |  |  | 
2 | COc1c(NC(=O)c2ccc(NC(=O)c3ccc(NC(=O)[C@H](Cc4cnn[nH]4)NC(=O)c4ccc(NC(=O)c5ccc(-c6nnn[nH]6)cc5)cc4)cc3)c(OC)c2O)ccc(C(=O)O)c1O [Compound 15] | 8 µg/mL (≈ 8.92 µM) | 0.25 µg/mL (≈ 0.279 µM) | 0.063 µg/mL (≈ 0.0702 µM) | 0.25 µg/mL (≈ 0.279 µM) | 8 µg/mL (≈ 8.92 µM) | 2 µg/mL (≈ 2.23 µM) |  |  |  |  |  | 
3 | COc1c(/C=C(\F)c2ccc(NC(=O)[C@H](Cc3cnn[nH]3)NC(=O)c3ccc(NC(=O)/C(C)=C/c4ccc(O)cc4)cc3)cc2)ccc(C(=O)Nc2ccc(C(=O)O)c(O)c2OC)c1O [Compound 16] |  |  |  |  |  |  | 0.25 µg/mL (≈ 0.282 µM) | 0.063 µg/mL (≈ 0.0711 µM) | 0.031 µg/mL (≈ 0.035 µM) | 0.063 µg/mL (≈ 0.0711 µM) | 0.063 µg/mL (≈ 0.0711 µM) | 0.031 µg/mL (≈ 0.035 µM)
4 | COc1c(/C=C/c2ccc(NC(=O)[C@H](Cc3cnn[nH]3)NC(=O)c3ccc(NC(=O)/C(C)=C/c4ccc(O)cc4)cc3)cc2)ccc(C(=O)Nc2ccc(C(=O)O)c(O)c2OC)c1O [Compound 17] | 0.5 µg/mL (≈ 0.576 µM) | 0.125 µg/mL (≈ 0.144 µM) | 0.063 µg/mL (≈ 0.0726 µM) | 0.125 µg/mL (≈ 0.144 µM) | 0.125 µg/mL (≈ 0.144 µM) | 0.063 µg/mL (≈ 0.0726 µM) |  |  |  |  |  | 
5 | COc1c(C#Cc2ccc(NC(=O)[C@H](Cc3cnn[nH]3)NC(=O)c3ccc(NC(=O)/C(C)=C/c4ccc(O)cc4)cc3)cc2)ccc(C(=O)Nc2ccc(C(=O)O)c(O)c2OC)c1O [Compound 18] | 0.5 µg/mL (≈ 0.577 µM) | 0.063 µg/mL (≈ 0.0728 µM) | 0.016 µg/mL (≈ 0.0185 µM) | 0.063 µg/mL (≈ 0.0728 µM) | 0.25 µg/mL (≈ 0.289 µM) | 0.063 µg/mL (≈ 0.0728 µM) |  |  |  |  |  | 
6 | COc1c(NC(=O)c2ccc(NC(=O)c3ccc(NC(=O)[C@H](Cc4cnn[nH]4)NC(=O)c4ccc(NC(=N)c5ccc(O)cc5)cc4)cn3)c(OC)c2O)ccc(C(=O)O)c1O [Compound 32] | 8 µg/mL (≈ 9.47 µM) | 0.25 µg/mL (≈ 0.296 µM) | 0.125 µg/mL (≈ 0.148 µM) | 0.5 µg/mL (≈ 0.592 µM) | 4 µg/mL (≈ 4.73 µM) | 2 µg/mL (≈ 2.37 µM) |  |  |  |  |  | 
7 | COc1c(NC(=O)c2ccc(NC(=O)c3ccc(NC(=O)[C@H](Cc4cnn[nH]4)NC(=O)c4ccc5[nH]c(-c6ccc(O)cc6)nc5c4)cn3)c(OC)c2O)ccc(C(=O)O)c1O [Compound 33] | ≥ 8 µg/mL | ≥ 8 µg/mL | ≥ 8 µg/mL | ≥ 8 µg/mL | ≥ 8 µg/mL | ≥ 8 µg/mL |  |  |  |  |  | 
